We go through seven compounds from patent EP4549150A1, “RESIN COMPOSITION FOR THREE-DIMENSIONAL PRINTING” (Cubicure GmbH, priority 2023, dated 2025).

Marks after values point to notes of the source that are not given here.

Format in all cases: physicochemical
Data set [1] in a line: Viscosity by rheology (temperature ramp, cone-plate rheometer). To be noted: shear rate 60 s^-1. On the procedure: Viscosity is another crucial parameter on the development of a reactive diluent. To obtain an effective reactive diluent, monomers providing a low viscosity need to be obtained. The referred viscosity is preferably between 5 and 100 mPa.s, more preferably between 5 and 50 mPa.s, and even more preferably 5 and 20 mPa.s. The presented viscosities refer to the process temperature which can be between 30-150°C. The viscosity was determined via rheology. Rheology measurements were performed using an Anton Paar MCR 102 rheometer, equipped with a P-PTD 200/GL Peltier glass plate and an H-PTD200 heating hood. For measuring the rheological properties, a temperature ramp experiment was performed from 25-100°C with a heating rate of 0.5°C min^-1, using a CP25 measurement system (cone plate with a 2° angle and 25 mm diameter) at a gap distance of 0.1 mm and with a shear rate of 60 s^-1.

Data set [2] in a line: Volatility: weight loss after 24 hours in oven. The settings on record: for weight loss relative to example 1: ratio to weight loss of example 1. How it is done:
Volatility can be assessed from the weight lost after 24 hours, and is preferably below 10%, more preferably below 5% and even more preferable below 1% at the process temperature (between 30 and 150°C). For the determination of the volatility of the compounds 25 mL flasks (Ø 30 mm) with approximately 2 grams of the test compound were placed in a Memmert oven at 50 °C and 80°C for 24 hours and the volatility was determined as the weight loss in percent (w/w).

Data set [3] in a line: Photo-DSC photo-reactivity study. To be noted: 50°C, 365 nm, 1% w/w TPO-L; for t95%: time when 95% of the total heat of polymerization has evolved; for tmax: time when maximum heat evolution was reached. How it is done: Photo-DSC (differential scanning calorimetry) studies were performed using a Netzsch DSC 204 F1 containing an autosampler and coupled to an intracooler IC85 cooling device. The system was connected to an Omnicure LX500 controller with a 365 nm LED and the power intensity was set on the sample at 17 mW cm^-2 (measured using a Thorlabs SMC100 powermeter and the corresponding S310C thermal power head). The test samples were mixed in a vortex mixer for 3 minutes with 1% w/w of TPO-L (a commercially available photoinitiator) and then […] were transferred to an aluminum crucible without lid. All experiments were conducted under Nitrogen atmosphere (flow = 20 mL/min) at 50°C and the samples were irradiated for 5 minutes. Triplicate DSC measurements were performed for each example. The measured heat of polymerization (ΔH) was calculated by integrating the area under the curve from 0 to 200 s.
Here, tmax is the time when maximum heat evolution was reached and t95% corresponds to the point when 95% of the total heat of polymerization has evolved (0 s corresponds to the moment when light is triggered). The double bound conversion (DBC) was calculated from the experimentally obtained heat of polymerization and the theoretical polymerization enthalpy indicated in the literature (56 kJ mol^-1 for methacrylates).

The nature of data set [4]: Dynamic Mechanical Analysis (DMA) of printed specimens. To be noted: increasing the percentage of reactive diluent from 10 to 30% in X-851-1066. On the procedure: For the (thermo)mechanical tests and water uptake tests, Example 1 or Reference 2 were mixed with two commercially available oligomers, namely Ebecryl 8811 (Allnex) a difunctional aliphatic urethane acrylate and BR-952 (Bomar) a difunctional aliphatic urethane methacrylate in different ratios.
For the sample preparation a speedmixer (DAC 150.1 FVZ-K, Hauschild) was used. 70 g of the total formulation was mixed at 3000 rpm for 10 minutes. After that the resin composition was degassed until no air bubbles were released.
Test specimens were printed on a Cubicure Caligma 200 DLP 405 nm. Light Pulse Duration was set to 6000, corresponding to 1.5 s total exposure time, and print speed to 20 mm/s. Processing temperature was 35°C, due to the high volatility of Reference 2.
Dynamic Mechanical Analysis (DMA) of the printed specimens measuring 50x5x1 mm^3 was performed using a DMA8000 Dynamic Mechanical Analyzer from PerkinElmer. The measurements were performed using the tension mode, from 30-160 °C with a heating rate of 2°C min^-1 and frequency of 1 Hz. In these experiments the evolution of the storage modulus G' with increasing temperature was observed and the Tg was determined (maximum value for tan δ).

With `C=C(C)C(=O)OC1CCCCC1O` (stereo not drawn) [Ex1, 2-hydroxycyclohexyl methacrylate], the Viscosity worked out at 53 mPa.s in data set [1] (25°C (room temperature)); 26 mPa.s in data set [1] (40°C); 16 mPa.s in data set [1] (50°C); 7 mPa.s in data set [1] (70°C); 4 mPa.s in data set [1] (90°C); 3 mPa.s in data set [1] (100°C). Also, the “Volatility [weight loss %]” value in data set [2] (50°C) is listed as 5%; in data set [2] (80°C), 20%. The t95% in data set [3] is 43 s. Further, the tmax in data set [3] was determined as 14 s. Also, the “decrease of Tg of the photopolymer” value in data set [4] was 4%.

Take `C=C(C)C(=O)OC1CCCCC1OC(=O)C1CCCCC1` (stereo not drawn) [Ex2, 2-(cyclohexylcarbonyloxy)cyclohexyl methacrylate]: the Viscosity in data set [1] (25°C (room temperature)) amounted to 27 mPa.s; in data set [1] (40°C), 17 mPa.s; in data set [1] (50°C), 12 mPa.s; in data set [1] (70°C), 7 mPa.s; in data set [1] (90°C), 4 mPa.s; in data set [1] (100°C), 4 mPa.s. For the same compound, the “Volatility [weight loss %]” value is on record as 1% in data set [2] (50°C) and 14% in data set [2] (80°C). Moreover, the t95% in data set [3] came to 66 s. In data set [3], the tmax worked out at 17 s.

For the compound `C=C(C)C(=O)OC1CCCCC1OC(=O)C(C)(C)C` (stereo not drawn) [Ex3, 2-(isopropenylcarbonyloxy)cyclohexyl 2,2-dimethylpropionate], the Viscosity in data set [1] (25°C (room temperature)) is listed as 13 mPa.s; in data set [1] (40°C), 9 mPa.s; in data set [1] (50°C), 6 mPa.s; in data set [1] (70°C) it was 4 mPa.s; in data set [1] (90°C), 2 mPa.s; in data set [1] (100°C), 2 mPa.s. Moreover, the “Volatility [weight loss %]” value in data set [2] (50°C) was found to be 2.7%; in data set [2] (80°C) it was 21%. Also, in data set [3], the t95% is given as 87 s. In addition, the tmax in data set [3] is on record as 51 s.

Take `C=C(C)C(=O)OC1CCCCC1OC(=O)Cc1ccccc1` (stereo not drawn) [Ex4, 2-(benzylcarbonyloxy)cyclohexyl methacrylate]: the Viscosity in data set [1] (25°C (room temperature)) amounted to 110 mPa.s; in data set [1] (25°C (room temperature), listed as Example 4), 174 mPa.s; in data set [1] (40°C) it was 53 mPa.s; in data set [1] (50°C), 31 mPa.s; in data set [1] (70°C), 13 mPa.s; in data set [1] (90°C), 8 mPa.s. This compound yielded a Viscosity in data set [1] (100°C) of 7 mPa.s. Besides, the “Volatility [weight loss %]” value in data set [2] (50°C) was 0.09%; in data set [2] (80°C), 17%. This compound registered a t95% in data set [3] of 174 s. The compound further displayed a tmax in data set [3] of 26 s.

As for `C=C(C)C(=O)OC1CCCCC1OC(=O)C(CC)CCCC` (stereo not drawn) [Ex5, 2-(isopropenylcarbonyloxy)cyclohexyl 2-ethylhexanoate], the Viscosity in data set [1] (25°C (room temperature)) stood at 174 mPa.s; in data set [1] (25°C (room temperature), listed as Example 5), 110 mPa.s; in data set [1] (40°C) it was 101 mPa.s; in data set [1] (40°C, listed as example 5), 53 mPa.s; in data set [1] (50°C), 65 mPa.s; in data set [1] (70°C) it was 34 mPa.s. Moreover, the Viscosity in data set [1] (90°C) is 20 mPa.s; in data set [1] (100°C), 19 mPa.s. Besides, the “Volatility [weight loss %]” value in data set [2] (50°C) is 0.6%; in data set [2] (80°C), 1.9** %.

Regarding `C=C(C)C(=O)OCCO` [Ref2, 2-hydroxyethylmethacrylate, reference compound], the Viscosity in data set [1] (25°C (room temperature)) stood at 6 mPa.s; in data set [1] (40°C), 4 mPa.s; in data set [1] (50°C) it was 3 mPa.s; in data set [1] (70°C), 2 mPa.s; in data set [1] (90°C) it was 1 mPa.s; in data set [1] (100°C), 1 mPa.s. Also, the entries for the “Volatility [weight loss %]” value in data set [2] (50°C) and in data set [2] (80°C) were 34% and 89%, respectively. Moreover, the “weight loss relative to example 1” value in data set [2] (80°C) is “more than 4 times”. The compound further gave a t95% in data set [3] of 65 s. The tmax in data set [3] was 43 s. In addition, the “decrease of Tg of the photopolymer” value in data set [4] is given as 13%.

As for “Isobornyl methacrylate [Ref1, reference compound]”, the Viscosity in data set [1] (25°C (room temperature)) was found to be 8 mPa.s; in data set [1] (40°C) it was 6 mPa.s; in data set [1] (50°C) it was 4 mPa.s; in data set [1] (70°C), 3 mPa.s; in data set [1] (90°C) it was 2 mPa.s; in data set [1] (100°C), 2 mPa.s. Moreover, the “Volatility [weight loss %]” value in data set [2] (50°C) worked out at 12%; in data set [2] (80°C), 65%. Also, the “weight loss relative to example 1” value in data set [2] (80°C) worked out at 3 times. For the same compound, the t95% in data set [3] is 67 s. In data set [3], the tmax turned out to be 36 s.
